This note sets out measurements from PubChem BioAssay (NCI).

Values joined by “and” are separate entries in the source; they are usually repeats but may differ in a detail not shown here. Identical values can stand only once.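 Where inhibition never reached the appropriate level, the endpoint shown equals the highest concentration tested. Otherwise, values were interpolated linearly from a five-concentration, 48-hour dose response in 96-well plates. GI50: concentration for 50% inhibition of growth. The concentration for full growth arrest is given as TGI.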 Bounds are passed on as bounds.

What all share (experiment): NCI anticancer screen, dose series, 48 h
Assay [1] relates to MCF7 breast.
The subject of assay [2] is CAKI-1 renal.
For assay [3], the system named is MDA-MB-435.
Assay [4] relates to UO-31 renal.
The subject of assay [5] is HL-60(TB) leukemia.
In assay [6] the test system is SNB-19 CNS.
The test system of assay [7] is T-47D breast.
Assay [8] has as its system UACC-257 melanoma.
The test system of assay [9] is SF-268 CNS.
In assay [10] the test system is KM12 colon.

For `O=C1/C(=C/c2ccccc2)SC(=Nc2ccccc2)N1Nc1ccccc1`, the GI50 in assay [1] is 7.91 µM; in [2], 13.7 µM; in [3], 15.1 µM; in assay [4], 7.94 µM; in [5] it was 10.4 µM; in [6], 13.5 µM. Moreover, the GI50 in assay [7] was 5.41 µM; in assay [8] it was 14.2 µM; in assay [9], 31.3 µM; in [10], 19 µM. Also, the TGI in [1] was 83.5 µM; in [2], over 100 µM; in [3], 48 µM; in assay [4] it was over 100 µM; in [5], 68.9 µM; in assay [6] it was over 100 µM. Moreover, the TGI in assay [7], in assay [8], in assay [9] and in assay [10] was over 100 µM each time.

As to `O=C1C(Cl)=C(Nc2ccc3cn[nH]c3c2)C(=O)c2ccccc21`, the GI50 in assay [1] is 1.09 µM; in assay [2] it was 1.47 µM; in [3], 1.51 µM; in assay [4], 1.25 µM; in assay [5], 1.7 µM; in [6], 1.66 µM. For the same compound, the GI50 is 1.24 µM in assay [7], 1.66 µM in assay [8], 1.63 µM in [9] and 3.23 µM in assay [10]. For the same compound, the TGI was determined as 2.58 µM in assay [1]; 2.78 µM in [2]; 2.83 µM in assay [3]; 2.51 µM in [4]; 4.45 µM in assay [5]; 3.33 µM in assay [6]. Further, the TGI in assay [7] came to 3.27 µM; in assay [8], 3.06 µM; in [9], 3 µM; in assay [10], 14.7 µM.

As to `COC(=O)c1ccccc1NC(=O)C(=O)CC(=O)c1ccccc1NC1=CC(=O)C(=O)c2ccccc21`, the TGI came to 25.5 µM in [1]; 74.1 µM in [2]; 8.59 µM in [3]; 69 µM in [4]; 12 µM in assay [5]; 77.5 µM in assay [6]. Also, the TGI is over 95 µM in assay [7], 14.8 µM in assay [8], 30.3 µM in assay [9] and 52.8 µM in assay [10].

As to `Nc1nc2ccc([C@@H]3Nc4ccc5[nH]ncc5c4[C@H]4[C@H]5CCC(C5)[C@H]43)cc2s1`, the GI50 was 0.412 µM in assay [1]; 0.791 µM in [2]; 0.293 µM in assay [3]; 1.78 µM in assay [4]; 0.345 µM in [5]; 1.3 µM in assay [6]. For the same compound, the GI50 in assay [7] was 0.79 µM; in assay [8], 2.12 µM; in assay [9] it was 1.49 µM; in assay [10] it was 0.838 µM. The TGI in assay [1] stood at 1.73 µM; in assay [2] it was 3.34 µM; in [3], 1.03 µM; in [4], 12.2 µM; in assay [5] it was 1.37 µM; in assay [6], 11 µM. Moreover, the TGI in [7] turned out to be 6.16 µM; in assay [8], 5.46 µM; in assay [9], 4.52 µM; in [10], 2.3 µM.

Take `COc1ccc(C2NCCc3c2[nH]c2ccccc32)cc1CN1CCN(c2ccc(F)cc2)CC1` (centres undefined): the GI50 in assay [1] is 1.66 µM; in assay [2], 1.57 µM; in [3], 1.66 µM; in [4], 1.57 µM; in assay [5], 2.14 µM; in assay [6], 3.54 µM. Besides, the GI50 is 1.88 µM in [7], 1.76 µM in [8], 2.57 µM in assay [9] and 1.86 µM in assay [10]. The TGI in assay [1] is 3.27 µM; in assay [2] it was 3.31 µM; in assay [3], 3.06 µM; in [4], 4.12 µM; in [5], 4.77 µM; in assay [6], 13 µM. Moreover, the TGI amounted to 3.94 µM in assay [7], 3.26 µM in [8], 7.82 µM in assay [9] and 3.33 µM in assay [10].

As for `O=C1C=CC(=O)C1(Br)Br`, the TGI in [1] was determined as 34.6 µM; in assay [2], 11.4 µM; in assay [3], 29.8 µM; in assay [4], 18.7 µM; in [5] it was 49 µM; in assay [6] it was 31.8 µM. In addition, the TGI came out at 51.6 µM in assay [7], 30.7 µM in assay [8], 37.9 µM in assay [9] and 29.4 µM in [10].

For the compound `CC[C@@]1(O)C(=O)OCc2c1cc1n(c2=O)Cc2cc3cc(OC)ccc3nc2-1`, the TGI was 0.196 µM in [1]; 0.0908 µM in [2]; 0.247 µM and 0.333 µM in assay [3]; 0.0172 µM in assay [5]; 4.19 µM in assay [6]; 1.54 µM in assay [8]. For the same compound, the TGI in [10] was 2.58 µM and 1.54 µM. Moreover, the GI50 was 0.117 µM in [3]; 0.249 µM in assay [4]; 0.00873 µM in assay [5]; 0.0185 µM in assay [7]; 0.0998 µM and 0.17 µM in assay [8]; 0.017 µM in [9]. Besides, the GI50 in assay [10] is 0.273 µM.

Turning to `CCCCCCCCOc1ccc(/C=N/Nc2cc(C)nc3ccc(Cl)cc23)cc1`, the GI50 in assay [1] was 1.94 µM; in assay [2], 1.69 µM; in assay [3], 1.73 µM; in [4], 1.55 µM; in assay [5], 2 µM; in [6], 2 µM. Further, the GI50 in assay [7] is 1.92 µM; in assay [8] it was 1.75 µM; in assay [9], 2.21 µM; in [10] it was 1.85 µM. For the same compound, the TGI was found to be 3.91 µM in [1]; 3.11 µM in assay [2]; 3.16 µM in [3]; 2.93 µM in assay [4]; 4.46 µM in [5]; 3.83 µM in assay [6]. For the same compound, the TGI in [7] came out at 4.09 µM; in assay [8], 4.03 µM; in assay [9] it was 4.18 µM; in assay [10], 3.44 µM.
